Columns and labels:
exposed rat cortex [1] = test: Agonist-induced vascular permeability to NaFlu, agonists added to ACSF with neuronal activity blocked; type: in vivo, Sprague-Dawley rats; conditions: neuronal activity and synaptic transmission blocked, mean±SEM
exposed rat cortex [2] = test: Seizure (4AP)-induced BBB dysfunction, fluorescent angiography permeability index; type: in vivo, Sprague-Dawley rats; conditions: 4AP-induced seizures (SE), NaFlu tracer, mean±SEM
rat brain [3] = test: T2-weighted MRI after photo-induced thrombotic stroke, relative lesion volume; type: in vivo; conditions: 48 h following photothrombosis; osmotic pumps i.p.; memantine 40 mg/kg, losartan 60 mg/kg; mean±SEM
rat brain [4] = test: Contrast enhanced T1-weighted MRI after photo-induced thrombotic stroke, relative BBB dysfunction volume; type: in vivo; conditions: 48 h following photothrombosis; osmotic pumps i.p.; memantine 40 mg/kg, losartan 60 mg/kg; mean±SEM
[5] = 10 min after adding the agonist to ACSF
[6] = 30 min after adding the agonist to ACSF

Row | Compound | shift in vascular permeability to NaFlu (PI shift from pre-substance application) (exposed rat cortex [1]; [5]) [%] | shift in vascular permeability to NaFlu (PI shift from pre-substance application) (exposed rat cortex [1]; [6]) [%] | shift in PI (BBB permeability index) from baseline (exposed rat cortex [2]; 10 min from seizure onset) [%] | shift in PI (BBB permeability index) from baseline (exposed rat cortex [2]; 30 min from seizure onset) [%] | relative lesion volume (100*# lesion voxels/# brain voxels) (rat brain [3]) [%] | relative BBB dysfunction volume (100*# BBBD voxels/# brain voxels) (rat brain [4]) [%]
1 | angiotensin II (DRVYIHPF; Angiotensin-2; UniProt P01019 25-32, looked up) [ATII, angiotensin II, agonist added to the ACSF, 70 μM] | −4.11±3.35 | −12.33±3.45 | – | – | – | –
2 | N[C@H](CCCP(=O)(O)O)C(=O)O [AP5, D-(−)-2-amino-5-phosphonopentanoic acid] | – | – | −1.19±4.71 | 18.78±6.93 | – | –
3 | TGF-β1: transforming growth factor beta 1, 10 ng/ml added to the ACSF | – | 15.3±7.62 | – | – | – | –
4 | bovine-serum albumin: bovine serum albumin, 0.2 mM added to the ACSF | −2.55±4.6 | −0.33±8.36 | – | – | – | –
5 | CC12CC3CC(C)(C1)CC(N)(C3)C2 [memantine, 3,5-dimethyladamantan-1-amine] | – | – | 3.14±3.1 | 20.86±3.78 | 24.18±3.75 | 15.03±1.83
